From patent publication EP4316475A1, “MERKEL CELL ACTIVATOR, SYNAPTIC VESICLE ENHANCER, NEUROTRANSMITTER RELEASE ACCELERATOR, METHOD FOR ASSESSING NEUROTRANSMITTER RELEASE ACTIVITY OF MERKEL CELLS, AND METHOD FOR SCREENING FOR NEUROTRANSMITTER RELEASE ACCELERATOR FOR MERKEL CELLS” (Shiseido Company, Ltd., priority 2021, dated 2022)
“Also recorded” adds a separate entry of the source.

Legend:
[1] = system: Merkel cells; test: Neurotransmitter release by Merkel cells in fresh skin epidermis ex vivo (FFN206 fluorescent tracer live imaging); type: cell-based, human; details: 500 µM Sandalore/BSS solution circulated from 300 s to 600 s; control BSS solution alone
Method: Fresh skin excised from the abdominal region of a healthy subject and a healthy subject, both having undergone cosmetic surgery, was used for experimentation within 5 days, after obtaining informed consent and ethical approval. The skin was exposed to 25 units/ml of a dispase-PBS solution for 15 minutes at 37°C to detach the epidermis.
The epidermis isolated from the fresh human skin was cultured for 30 minutes in a high-potassium extracellular solution (5 mM NaCl, 140 mM KCl, 10 mM HEPES (pH 7.4), 10 mM D-glucose, 2 mM MgCl2 and 2 mM CaCl2) containing FFN206 (Tocris, Catalog No. 5043), and the fluorescent-labeled neurotransmitter FFN206 was specifically taken up into the Merkel cells.
BSS (Balanced salt solution) solution (140 mM NaCl, 5 mM KCl, 10 mM HEPES (pH 7.4), 10 mM D-glucose, 2 mM MgCl2 and 2 mM CaCl2) was circulated for the first 5 minutes, as baseline. After 5 minutes (300 s) until the end of observation (600 s), circulation was with 500 µM Sandalore (Givaudan)/BSS solution (A). […]
The cell response was evaluated based on the brightness value of FFN206, using cellSens (Olympus) and MATLAB (Mathworks). […] The change in brightness value of the baseline in each ROI was determined by nonlinear approximation, and the brightness value with the effect of discoloration eliminated was determined based on the approximation results for baseline. […]

[2] = system: Merkel cells; test: Piccolo expression in CK20-positive Merkel cells of cultured scalp samples (fluorescent immunohistochemical staining); type: cell-based, Human; details: Sandalore 500 µM in medium from day 1, samples collected day 3, control 0.1% DMSO
Excerpt: Human scalp from the temporal and occipital regions was taken from healthy female subjects (47 to 60 years of age) that had received common cosmetic surgery, and used after obtaining informed consent and ethical approval (Muenster University).
Scalp samples including hair follicles were taken using a 6 mm punch from the occipital region (donors 1, 2, 3 and 4) or the temporal region (donor 5) of subjects: a person (donor 1), a person (donor 2), a person (donor 3), a person (donor 4) and a donor 5). The obtained samples were placed in 25 ng/ml NGF-added DMEM/F12 medium and cultured in a 5% CO2 humidified atmosphere at 37°C (day 0). […]
The primary antibodies used were anti-CK20 antibody (distributor: Progen, Product No.: Product No.: 61054) and anti-Piccolo antibody (distributor: Novus Biologicals (Tocris), Product No.: NBP1-90250), and the subsequent secondary antibodies used were Goat anti-Rabbit IgG (H+L) Cross-Adsorbed Secondary Antibody (distributor: Invitrogen, Product No.: A-11008) and Goat anti-Mouse IgG (H+L) Highly Cross-Adsorbed Secondary Antibody (distributor: Invitrogen, Product No.: A-11030), in combination with each of the primary antibodies, respectively. […] The number of CK20-positive cells expressing Piccolo in a specified region in a photograph taken under a fluorescent microscope were counted and shown in a graph (Fig. 4C).

CC1=CCC(CCC(C)C(C)O)C1(C)C (centres unmarked) [Sandalore, 3-methyl-5-(2,2,3-trimethyl-cyclopenta-3-en-1-yl)-pentan-2-ol]
fluorescent brightness value of Merkel cells (FFN206 signal) [1]: the fluorescent brightness value decreased; also recorded: the brightness value continued to decrease beyond the reaction line calculated from baseline | number of CK20-positive cells expressing Piccolo in a specified region [2]: increased the number of Merkel cells expressing Piccolo
